{"source": "patent US8536137B2", "about": "“Methods for treating nucleoside-induced pain” (UCB Pharma GmbH, priority 2004, dated 2013)", "key": {"[1]": {"system": "rats intoxicated with anti-retroviral nucleoside analogue AIDS therapy drugs", "settings": "intoxicated animals; literature report; cited from earlier work"}, "[2]": {"system": "bone cancer rats (MRMT-1 rat mammary gland carcinoma cells injected into the tibia)", "experiment": "Bone cancer rat model: thermal paw stimulation (thermal hyperalgesia)", "format": "in vivo", "settings": "SPM 927 30 mg/kg, days 14 and 15; Dunnett's p<0.001", "protocol": "Cells were cultured in medium containing RPMI-1640 (Gibco, 500 ml), 10% heat-inactivated fetal bovine serum (Hyclone), L-glutamine (final concentration 2 mM, from Gibco) and antibiotic solution (final concentration 100 U/ml penicillin and 100 ug/ml streptomycin sulfate, from Gibco). Cells were released from the tissue culture flask by brief exposure to 0.1% trypsin so (Gibco) and then prepared for injection as follows: cells were centrifuged for 10 minutes at approximately 1,200 rpm. The resulting pellet was washed twice in Phosphate Buffered Saline (PBS, Mediatech) containing no calcium or magnesium. Final pellet was re-suspended in PBS and cell count taken using a hemocytometer. Cells were diluted to achieve final concentrations for injection and kept on ice until injection was performed.\nAfter one week of quarantine, either culture media or 3×10^4 syngeneic MRMT-1 rat mammary gland carcinoma cells were injected into the medullary cavity of the proximal tibia of each rat. Procedurally, the animal was first anesthetized with ketamine/xylazine and the right leg area shaved and treated with an iodine solution and cleaned with a 70% ethanol solution. A 1-cm rostral-caudal incision was made in the skin over the top half of the tibia. […]\nOn days 7, 8, 14 and 15, pain assessment tests were performed. […] The animals were first evaluated for mechanical allodynia and then thermal hyperalgesia. […]"}, "[3]": {"system": "vincristine-rats", "experiment": "Vincristine-induced pain model: cold bath test (thermal allodynia)", "format": "in vivo, rat", "settings": "day 17; for threshold latency in cold bath test vs vincristine/vehicle: 30 min before test", "method": "(§1) For this study, 86 female Dark Agouti rats (150-200 g) were used (Harlan, Gannat, France), They were group-housed (3 animals per cage) and maintained in a room with controlled temperature (21-22° C.) and a reversed light-dark cycle (12 h/12 h) with food and water available ad libitum. All experiments were carried out in accordance with institutional guidelines. Vincristine intoxication was achieved by daily injection of vincristine (0.15 mg/kg/d, i.p.) from day 1 to 5, from day 8 to 12 and days 15 to 16. On day 17, animals were submitted to the behavioral test and received pharmacological treatment.\n(§2) Animals were placed on ice platform submerged approximately 1 cm below the surface of cold water (4° C.), such that the hairy and glabrous skin of the animal feet was in contact with the cold water. The latency before the first reaction (licking, moving the paws, little leaps) was recorded with a cut off time of 30 s.\n(§3) ANOVA followed by post-hoc analysis (Dunneft's test) was used to compare groups of behavioral data in each individual time points."}, "[4]": {"system": "ddC-rats", "experiment": "Nucleoside-induced pain model (ddC): brushing test at day 20 (mechanical allodynia)", "format": "in vivo, rat", "method": "as §3\n(§4) For this study, 50 male Sprague Dawley (˜220 g) rats were used (Janvier, Le Genest-St-isle, France). Rats were group-housed (3 animals per cage) and maintained in a room with controlled temperature (21-22° C.) and a reversed light-dark cycle (12 h/12 h) with food and water available ad libitum. All experiments were carried out in accordance with institutional guidelines. Intoxication was achieved by a single injection of ddC (50 mg/kg, I.V. in tail vein).\nThe hair on the legs, flanks, and lower back was sequentially brushed with a cotton-tipped applicator using an oscillating motion (rate of 1-2/s; 30 sec). Brushing was done with no more force than required to move the applicator through the hair such that only the pelage is disturbed. Vocalization and moderate effects to avoid the brushing were counted."}, "[5]": {"system": "ddC-rats", "experiment": "Nucleoside-induced pain model (ddC): von Frey filament test at D10 (mechanical allodynia)", "format": "in vivo, rat", "settings": "for paw withdrawal latency in von Frey filament test, difference with vehicle-treated group: p<0.05, level comparable to control group", "method": "(§5) Rats were placed on a metallic grid floor. The nociceptive testing was done by inserting the von Frey filament (Bioseb, France) through the grid floor and applying it to the plantar surface of the hind paw. A trial consisted of several applications of the different von Frey filaments (at a frequency of 1-1.5 s). The von Frey filaments were applied from filament 10 g to 100 g. The mechanical allodynia threshold was recorded as soon as the animal removed its hind paw the test was stopped and the filament number was recorded.\nas §3, §4"}, "[6]": {"system": "vincristine-rats", "experiment": "Vincristine-induced pain model: hot plate test at 52° C. (thermal hyperalgesia)", "format": "in vivo, rat", "settings": "day 17, p<0.05 Dunnett's, comparable with control", "method": "as §1\n(§6) Animals were placed into a glass cylinder on a hot plate (Bioblock, France) adjusted to 38° C. or 52° C. The latency of the first reaction (licking, moving the paws, little leaps or a jump to escape the heat) was recorded with a cut off time of 30 s.\nas §3"}, "[7]": {"system": "vincristine-rats", "experiment": "Vincristine-induced pain model: paw pressure test (mechanical hyperalgesia)", "format": "in vivo, rat", "settings": "day 17; for paw withdrawal latency in paw pressure test (Randall & Selitto): p<0.05 Dunnett's", "method": "as §1\n(§7) The nociceptive flexion reflex was quantified using the Randall-Selitto paw pressure device (Bioseb, France), which applies a linearly increasing mechanical force to the dorsum of the rat's hind paw. The mechanical nociceptive threshold was defined as the force in grams at which the rat withdrew its paw. The cut off pressure was set to 250 g.\nas §3"}, "[8]": {"system": "ddC-rats", "experiment": "Nucleoside-induced pain model (ddC): hot plate test at 52° C. at D20 (thermal hyperalgesia)", "format": "in vivo, rat", "method": "as §6, §3, §4"}, "[9]": {"system": "ddC-rats", "experiment": "Nucleoside-induced pain model (ddC): cold bath test (thermal allodynia)", "format": "in vivo, rat", "settings": "for threshold latency in cold bath test vs ddC/vehicle: p<0.05 Dunnett's, comparable to control animals", "method": "as §2, §3, §4"}, "[10]": {"system": "bone cancer rats (MRMT-1 rat mammary gland carcinoma cells injected into the tibia)", "experiment": "Bone cancer rat model: weight bearing difference (mechanical hyperalgesia)", "format": "in vivo", "settings": "SPM 927 40 mg/kg, following treatment; p<0.05", "protocol": "After one week of quarantine, either culture media or 3×10^4 syngeneic MRMT-1 rat mammary gland carcinoma cells were injected into the medullary cavity of the proximal tibia of each rat. Procedurally, the animal was first anesthetized with ketamine/xylazine and the right leg area shaved and treated with an iodine solution and cleaned with a 70% ethanol solution. A 1-cm rostral-caudal incision was made in the skin over the top half of the tibia. Blunt-dissection was performed to expose the tibia, ensuring minimal damage to muscles or blood vessels. Using a 23-gauge needle, the tibia was pierced. […] The needle was inserted at an angle to enable it to be pushed down into the intramedullary canal of the bone. Once a pathway to the intramedullary canal was opened, the 23-gauge needle was removed and replaced by a blunt needle attached to a 5 μl Hamilton syringe. […]\nOn days 7, 8, 14 and 15, pain assessment tests were performed. […] The animals were first evaluated for mechanical allodynia and then thermal hyperalgesia. […] The animals were first evaluated for baseline weight bearing responses. […]\nAfter the animals in groups 4-6 were re-randomized to drug treatment groups, on day 9, 15 all animals underwent weight-bearing testing. Weight bearing of affected hind limbs was assessed as the difference in weight borne by the ipsilateral compared to the contralateral limb. […]"}, "[11]": {"system": "ddC-rats", "experiment": "Nucleoside-induced pain model (ddC): paw pressure test at D10 (mechanical hyperalgesia)", "format": "in vivo, rat", "settings": "p<0.05 Dunnett's", "excerpt": "as §7, §3, §4"}, "[12]": {"system": "rat model of bone cancer pain, chemotherapy- and nucleoside-induced pain", "experiment": "Overall summary of the bone cancer, chemotherapy-induced and nucleoside-induced pain models", "format": "in vivo", "settings": "across the three rat models", "excerpt": "The effect of systemic administration of SPM 927 was examined in rats in a tumor-induced bone cancer pain model, in a chemotherapy-induced and a nucleoside analogue-induced neuropathic pain model. SPM 927 reduced mechanical and thermal hyperalgesia as well as mechanical and thermal allodynia in these models."}, "[13]": {"system": "vincristine-rats", "experiment": "Vincristine-induced pain model: von Frey hair stimulation test (mechanical allodynia)", "format": "in vivo, rat", "settings": "day 17; for paw withdrawal latency in von Frey filament test, difference with vehicle-treated group: p<0.05 Dunnett's", "method": "as §1, §5, §3"}, "[14]": {"system": "vincristine-rats", "experiment": "Vincristine-induced pain model: hot plate test at 38° C. (thermal allodynia)", "format": "in vivo, rat", "settings": "day 17", "method": "as §1, §6, §3"}}}
{"compound": "COc1cc(N(CC(=O)O)CC(=O)O)c2nc(COc3cc(C)ccc3N(CC(=O)O)CC(=O)O)ccc2c1", "note": "[Quin-2]", "values": [{"measurement": "reversal of nucleoside reverse transcriptase inhibitor-induced hypersensitivity", "setting": "[1]", "result": "capable of reversing"}]}
{"compound": "COC[C@@H](NC(C)=O)C(=O)NCc1ccccc1", "note": "[SPM 927, (R)-2-acetamide-N-benzyl-3-methoxypropionamide]", "values": [{"measurement": "latency to remove paw (thermal paw testing), post-treatment vs 'cells only'", "setting": "[2]", "result": "different"}, {"measurement": "threshold latency in cold bath test vs vincristine/vehicle", "setting": "[3]; SPM 927 3 mg/kg i.p., slightly greater than vincristine-animals", "result": "statistical difference was not reached"}, {"measurement": "threshold latency in cold bath test vs vincristine/vehicle", "setting": "[3]; SPM 927 10 mg/kg i.p., p<0.05 Dunnett's, comparable to control animals", "result": "significant increase"}, {"measurement": "threshold latency in cold bath test vs vincristine/vehicle", "setting": "[3]; SPM 927 30 mg/kg i.p., p<0.05 Dunnett's, comparable to control animals", "result": "significant increase"}, {"measurement": "total number of cries in brushing test", "setting": "[4]; SPM 927 3 mg/kg i.p., D 20, p<0.05 Dunnett's", "result": "significant decrease"}, {"measurement": "total number of cries in brushing test", "setting": "[4]; SPM 927 10 mg/kg i.p., D 20, p<0.05 Dunnett's", "result": "significant decrease"}, {"measurement": "total number of cries in brushing test", "setting": "[4]; SPM 927 30 mg/kg i.p., D20, p<0.05 Dunnett's", "result": "significant decrease"}, {"measurement": "paw withdrawal latency in von Frey filament test, difference with vehicle-treated group", "setting": "[5]; SPM 927 3 mg/kg i.p.", "result": "reached the significance level"}, {"measurement": "paw withdrawal latency in von Frey filament test, difference with vehicle-treated group", "setting": "[5]; SPM 927 10 mg/kg i.p.", "result": "reached the significance level"}, {"measurement": "paw withdrawal latency in von Frey filament test, difference with vehicle-treated group", "setting": "[5]; SPM 927 30 mg/kg i.p.", "result": "reached the significance level"}, {"measurement": "paw withdrawal latency in hot plate test at 52° C. vs vehicle-treated animals", "setting": "[6]; SPM 927 3 mg/kg i.p.", "result": "significant increase"}, {"measurement": "paw withdrawal latency in hot plate test at 52° C. vs vehicle-treated animals", "setting": "[6]; SPM 927 10 mg/kg i.p.", "result": "significant increase"}, {"measurement": "paw withdrawal latency in hot plate test at 52° C. vs vehicle-treated animals", "setting": "[6]; SPM 927 30 mg/kg i.p.", "result": "significant increase"}, {"measurement": "paw withdrawal latency in paw pressure test (Randall & Selitto)", "setting": "[7]; SPM 927 10 mg/kg i.p.", "result": "significant increase"}, {"measurement": "paw withdrawal latency in paw pressure test (Randall & Selitto)", "setting": "[7]; SPM 927 30 mg/kg i.p.", "result": "significant increase"}, {"measurement": "paw withdrawal latency in hot plate test at 52° C., effect", "setting": "[8]; SPM 927 3 mg/kg i.p.", "result": "comparable with untreated vehicle group"}, {"measurement": "paw withdrawal latency in hot plate test at 52° C., effect", "setting": "[8]; SPM 927 10 mg/kg i.p.", "result": "comparable with untreated vehicle group"}, {"measurement": "paw withdrawal latency in hot plate test at 52° C. vs vehicle-treated animals", "setting": "[8]; SPM 927 30 mg/kg i.p., p<0.05 Dunnett's", "result": "significant increase"}, {"measurement": "threshold latency in cold bath test vs ddC/vehicle", "setting": "[9]; SPM 927 3 mg/kg i.p.", "result": "significant increase"}, {"measurement": "threshold latency in cold bath test vs ddC/vehicle", "setting": "[9]; SPM 927 10 mg/kg i.p.", "result": "significant increase"}, {"measurement": "threshold latency in cold bath test vs ddC/vehicle", "setting": "[9]; SPM 927 30 mg/kg i.p.", "result": "significant increase"}, {"measurement": "amount of weight placed on contralateral paw (weight bearing difference) vs 'cells only' group", "setting": "[10]", "result": "significant reduction"}, {"measurement": "paw withdrawal latency in paw pressure test (Randall & Selitto)", "setting": "[11]; SPM 927 3 mg/kg i.p.", "result": "significant increase"}, {"measurement": "paw withdrawal latency in paw pressure test (Randall & Selitto)", "setting": "[11]; SPM 927 10 mg/kg i.p.", "result": "significant increase"}, {"measurement": "paw withdrawal latency in paw pressure test (Randall & Selitto)", "setting": "[11]; SPM 927 30 mg/kg i.p.", "result": "significant increase"}, {"measurement": "analgesic activity compared with morphine", "setting": "[12]; systemic administration", "result": "overall more active than morphine"}, {"measurement": "anti-allodynic and anti-hyperalgesic effect", "setting": "[12]; systemic, single dose administration", "result": "dose-dependent"}, {"measurement": "paw withdrawal latency in von Frey filament test, difference with vehicle-treated group", "setting": "[13]; SPM 927 10 mg/kg i.p.", "result": "reached the significance level"}, {"measurement": "paw withdrawal latency in von Frey filament test, difference with vehicle-treated group", "setting": "[13]; SPM 927 30 mg/kg i.p.", "result": "reached the significance level"}, {"measurement": "threshold latency in hot plate (38° C.) test vs vincristine/vehicle", "setting": "[14]; SPM 927 3 mg/kg i.p.", "result": "significant (p<0.05, Dunneft's test) increase"}, {"measurement": "threshold latency in hot plate (38° C.) test vs vincristine/vehicle", "setting": "[14]; SPM 927 10 mg/kg i.p., comparable with control animals", "result": "significant (p<0.05, Dunneft's test) increase"}, {"measurement": "threshold latency in hot plate (38° C.) test vs vincristine/vehicle", "setting": "[14]; SPM 927 30 mg/kg i.p., comparable with control animals", "result": "significant (p<0.05, Dunneft's test) increase"}]}
{"compound": "CN1CC[C@]23c4c5ccc(O)c4O[C@H]2[C@@H](O)C=C[C@H]3[C@H]1C5", "note": "[morphine, reference compound]", "values": [{"measurement": "threshold latency in cold bath test, level reached", "setting": "[3]; morphine 3 mg/kg s.c., 45 min before test", "result": "far above that obtained from control rats"}, {"measurement": "total number of cries in brushing test", "setting": "[4]; morphine 3 mg/kg s.c., D 20", "result": "significantly decrease"}, {"measurement": "performance in von Frey filament test", "setting": "[5]; morphine 3 mg/kg s.c.", "result": "restored the performance of ddC-rats to a level similar to control group"}, {"measurement": "performance in paw pressure test (Randall & Selitto)", "setting": "[7]; morphine 3 mg/kg s.c., p>0.05", "result": "did not modify the performance"}, {"measurement": "threshold latency in cold bath test, level reached", "setting": "[9]; morphine 3 mg/kg s.c.", "result": "comparable to that obtained from control rats"}, {"measurement": "performance in paw pressure test (Randall & Selitto)", "setting": "[11]; morphine 3 mg/kg s.c.", "result": "increased the performance"}, {"measurement": "performance in von Frey filament test", "setting": "[13]; morphine 3 mg/kg s.c.", "result": "restored the performance of vincristine-rats to a level comparable with that of control group"}, {"measurement": "threshold latency in hot plate (38° C.) test, level reached", "setting": "[14]; morphine 3 mg/kg s.c.", "result": "comparable with that of control rats"}]}
{"compound": "CCN(CC)CCCCCCCCOC(=O)c1cc(OC)c(OC)c(OC)c1", "note": "[TMB-8]", "values": [{"measurement": "reversal of nucleoside reverse transcriptase inhibitor-induced hypersensitivity", "setting": "[1]", "result": "capable of reversing"}]}
